According to ChEMBL document CHEMBL1126340, “Dual-acting thromboxane receptor antagonist/synthase inhibitors: heterocyclic variations” (Bioorg Med Chem Lett, 1992):

How the values were obtained:
[1] = molecular target: T1, Thromboxane-A synthase (Homo sapiens, UniProt P24557); test: Inhibition of human Thromboxane A2 synthase
T1 sequence (P24557 whole entry): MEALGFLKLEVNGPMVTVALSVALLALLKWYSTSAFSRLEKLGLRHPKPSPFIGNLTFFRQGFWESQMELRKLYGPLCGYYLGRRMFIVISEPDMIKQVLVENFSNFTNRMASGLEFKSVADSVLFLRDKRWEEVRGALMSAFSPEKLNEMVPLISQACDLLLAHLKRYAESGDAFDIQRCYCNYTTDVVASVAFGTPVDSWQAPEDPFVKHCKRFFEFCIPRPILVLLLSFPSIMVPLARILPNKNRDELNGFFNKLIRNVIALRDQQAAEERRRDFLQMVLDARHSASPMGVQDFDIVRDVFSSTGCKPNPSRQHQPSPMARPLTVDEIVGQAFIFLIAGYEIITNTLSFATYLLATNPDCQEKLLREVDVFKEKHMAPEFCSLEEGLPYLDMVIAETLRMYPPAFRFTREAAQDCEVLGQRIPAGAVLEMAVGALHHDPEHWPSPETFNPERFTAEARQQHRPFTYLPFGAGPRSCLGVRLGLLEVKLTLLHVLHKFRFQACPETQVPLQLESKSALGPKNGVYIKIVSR

[2] = molecular target: T2, Thromboxane A2 receptor (Homo sapiens, UniProt P21731); test: Antagonistic potency against Thromboxane A2 receptor expressed as inhibition of U 46619-induced platelet aggregation in human platelet rich plasma.; type: functional; details: read-out: pA2 (converted)
T2 sequence (P21731 whole entry): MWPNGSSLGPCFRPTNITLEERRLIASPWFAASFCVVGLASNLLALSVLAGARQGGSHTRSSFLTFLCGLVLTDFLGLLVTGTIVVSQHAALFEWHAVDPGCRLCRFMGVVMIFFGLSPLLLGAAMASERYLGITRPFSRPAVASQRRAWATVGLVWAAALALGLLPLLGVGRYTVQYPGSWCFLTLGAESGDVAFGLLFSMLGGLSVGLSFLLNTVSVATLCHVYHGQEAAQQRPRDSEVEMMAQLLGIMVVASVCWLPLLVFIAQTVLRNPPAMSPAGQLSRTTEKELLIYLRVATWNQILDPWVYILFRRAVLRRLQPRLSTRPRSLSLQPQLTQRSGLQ

[3] = system: Canis familiaris; test: Compound was tested in vivo for inhibition of serum TXB2 formation in conscious dog at a oral dose of 1 mg/kg; type: functional; details: Canis lupus familiaris
[4] = system: Canis familiaris; test: Compound was tested in vivo for blockade of U 46619-induced platelet aggregation in conscious dog at a oral dose of 1 mg/kg; Expressed as Concentration ratio; type: functional, Canis lupus familiaris

Structure (SMILES) | IC50 [1] [nM] | Kb [2] [nM] | inhibition in vivo at 1 mg/kg [3] [%] | Activity [4]
CC1(C)OC[C@@H](C/C=C\CCC(=O)O)[C@@H](c2cccs2)O1 | 4100 | – | – | –
CC1(C)OC[C@@H](C/C=C\CCC(=O)O)[C@@H](c2cncnc2)O1 | > 10000 | – | – | –
CC1(C)OC[C@@H](C/C=C\CCC(=O)O)[C@@H](c2ccnnc2)O1 | 7400 | – | – | –
CCCCCCn1cncc1[C@H]1OC(C)(C)OC[C@H]1C/C=C\CCC(=O)O | 900 | – | – | –
CC1(C)OC[C@@H](C/C=C\CCC(=O)O)[C@@H](c2cnccn2)O1 | > 10000 | – | – | –
CC1(C)OC[C@@H](C/C=C\CCC(=O)O)[C@@H](c2cnco2)O1 | > 10000 | – | – | –

Compounds with a lower IC50 [1], results first:

IC50 [1] [nM] | Kb [2] [nM] | Structure (SMILES) | inhibition in vivo at 1 mg/kg [3] [%] | Activity [4]
490 | 200 | CCCCCCn1cncc1[C@H]1O[C@@H](C(C)(C)Oc2ccc(C)cc2[N+](=O)[O-])OC[C@H]1C/C=C\CCC(=O)O | – | –
120 | – | CC1(C)OC[C@@H](C/C=C\CCC(=O)O)[C@@H](c2cccnc2)O1 | – | –
80 | – | CC1(C)OC[C@@H](C/C=C\CCC(=O)O)[C@@H](c2cncs2)O1 | – | –
70 | – | Cn1cncc1[C@H]1OC(C)(C)OC[C@H]1C/C=C\CCC(=O)O | – | –
50 | 3.98 | Cc1ccc(OC(C)(C)[C@H]2OC[C@@H](C/C=C\CCC(=O)O)[C@@H](c3cncn3C)O2)c([N+](=O)[O-])c1 | – | –
19 | 3.98 | Cc1ccc(OC(C)(C)[C@H]2OC[C@@H](C/C=C\CCC(=O)O)[C@@H](c3cccnc3)O2)c([N+](=O)[O-])c1 | – | –
18 | 5.01 | Cc1ccc(OC(C)(C)[C@H]2OC[C@@H](C/C=C\CCC(=O)O)[C@@H](c3cncs3)O2)c([N+](=O)[O-])c1 | 60 | >50
